Reference: ChEMBL document CHEMBL4196219, “Rare Thioglycosides from the Roots of Wasabia japonica” (J Nat Prod, 2018)

Test system: BV-2
Experiment: Antiinflammatory activity in mouse BV2 cells assessed as inhibition of LPS-induced nitric oxide production after 24 hrs by Griess reagent based assay
Assay type: functional, cell-based
Conditions: BV-2, 24 h

- IC50: 41.2 µM
Compound: C[C@@H]1CSS[C@@H]2O[C@H](CO)[C@@H](O)[C@H](O)[C@H]2OC1=O
